Results as given in US20230255966A1, “A COMBINATION OF A CBP/P300 BROMODOMAIN INHIBITOR AND AN EGFR INHIBITOR FOR USE IN TREATING EGFR-MUTANT NSCLC” (TOLREMO THERAPEUTICS AG, priority 2020, published 2023).

Legend:
TAF1(2) = molecular target: T1, TAF1(2) (Homo sapiens, UniProt P21675); test: BROMOscan BromoKdMAX; assay type: binding
T1 construct: T7 phage strains displaying bromodomains were grown in parallel; purchased DiscoverX (BROMOscan / BromoKdMAX service); host or cells: T7 phage in E. coli host derived from BL21
Procedure: (§1) A BromoKdMAX was performed at DiscoverX.
(§2) The assay principle is the following: BROMOscan™ is a novel industry leading platform for identifying small molecule bromodomain inhibitors. Based on proven KINOMEscan™ technology, BRO-MOscan™ employs a proprietary ligand binding site-directed competition assay to quantitatively measure interactions between test compounds and bromodomains.
(§3) The assay was conducted as follows: For the Bromodomain assays, T7 phage strains displaying bromodomains were grown in parallel in 24-well blocks in an E. coli host derived from the BL21 strain. E. coli were grown to log-phase and infected with T7 phage from a frozen stock (multiplicity of infection=0.4) and incubated with shaking at 32° C. until lysis (90-150 minutes). The lysates were centrifuged (5,000×g) and filtered (0.2 μm) to remove cell debris. […] The liganded beads were blocked with excess biotin and washed with blocking buffer (SeaBlock (Pierce), 1% BSA, 0.05% Tween 20, 1 mM DTT) to remove unbound ligand and to reduce non-specific phage binding. […] Test compounds were prepared as 1000× stocks in 100% DMSO. Kds were determined using an 11-point 3-fold compound dilution series with one DMSO control point. […] The compounds were then diluted directly into the assays such that the final concentration of DMSO was 0.09%. All reactions performed in polypropylene 384-well plates. Each was a final volume of 0.02 ml. […] The bromodomain concentration in the eluates was measured by qPCR.

BRD4(2) = molecular target: T2, BRD4(2) (Homo sapiens, UniProt O60885); test: BROMOscan BromoKdMAX; assay type: binding
T2 construct: T7 phage strains displaying bromodomains were grown in parallel; purchased DiscoverX; host or cells: T7 phage in E. coli host derived from BL21
Procedure: as §1, §2, §3

TAF1L(2) = molecular target: T3, TAF1L(2) (Homo sapiens, UniProt Q8IZX4); test: BROMOscan BromoKdMAX; assay type: binding
T3 construct: T7 phage strains displaying bromodomains were grown in parallel; purchased DiscoverX (BROMOscan / BromoKdMAX service); host or cells: T7 phage in E. coli host derived from BL21
Procedure: as §1, §2, §3

BRD9 = molecular target: T4, BRD9 (Homo sapiens, UniProt Q9H8M2); test: BROMOscan BromoKdMAX; assay type: binding
T4 construct: T7 phage strains displaying bromodomains were grown in parallel; purchased DiscoverX; host or cells: T7 phage in E. coli host derived from BL21
Procedure: as §1, §2, §3

BRDT(2) = molecular target: T5, BRDT(2) (Homo sapiens, UniProt Q58F21); test: BROMOscan BromoKdMAX; assay type: binding
T5 construct: T7 phage strains displaying bromodomains were grown in parallel; purchased DiscoverX; host or cells: T7 phage in E. coli host derived from BL21
Procedure: as §1, §2, §3

BRD7 = molecular target: T6, BRD7 (Homo sapiens, UniProt Q9NPI1); test: BROMOscan BromoKdMAX; assay type: binding
T6 construct: T7 phage strains displaying bromodomains were grown in parallel; purchased DiscoverX; host or cells: T7 phage in E. coli host derived from BL21
Procedure: as §1, §2, §3

BRD2(1) = molecular target: T7, BRD2(1) (Homo sapiens, UniProt P25440); test: BROMOscan BromoKdMAX; assay type: binding
T7 construct: T7 phage strains displaying bromodomains were grown in parallel; purchased DiscoverX; host or cells: T7 phage in E. coli host derived from BL21
Procedure: as §1, §2, §3

BRD2(1, 2) = molecular target: T8, BRD2(1, 2) (Homo sapiens, UniProt P25440); test: BROMOscan BromoKdMAX; assay type: binding
T8 construct: T7 phage strains displaying bromodomains were grown in parallel; purchased DiscoverX; host or cells: T7 phage in E. coli host derived from BL21
Procedure: as §1, §2, §3

WDR9(2) = molecular target: T9, WDR9(2) (Homo sapiens, UniProt Q9NSI6); test: BROMOscan BromoKdMAX; assay type: binding
T9 construct: T7 phage strains displaying bromodomains were grown in parallel; purchased DiscoverX (BROMOscan / BromoKdMAX service); host or cells: T7 phage in E. coli host derived from BL21
Procedure: as §1, §2, §3

BRPF1 = molecular target: T10, BRPF1 (Homo sapiens, UniProt P55201); test: BROMOscan BromoKdMAX; assay type: binding
T10 construct: T7 phage strains displaying bromodomains were grown in parallel; purchased DiscoverX; host or cells: T7 phage in E. coli host derived from BL21
Procedure: as §1, §2, §3

PCAF = molecular target: T11, PCAF (Homo sapiens, UniProt Q92831); test: BROMOscan BromoKdMAX; assay type: binding
T11 construct: T7 phage strains displaying bromodomains were grown in parallel; purchased DiscoverX (BROMOscan / BromoKdMAX service); host or cells: T7 phage in E. coli host derived from BL21
Procedure: as §1, §2, §3

BRD4(1, 2) = molecular target: T12, BRD4(1, 2) (Homo sapiens, UniProt O60885); test: BROMOscan BromoKdMAX; assay type: binding
T12 construct: T7 phage strains displaying bromodomains were grown in parallel; purchased DiscoverX; host or cells: T7 phage in E. coli host derived from BL21
Procedure: as §1, §2, §3

BRD8(1) = molecular target: T13, BRD8(1) (Homo sapiens, UniProt Q9H0E9); test: BROMOscan BromoKdMAX; assay type: binding
T13 construct: T7 phage strains displaying bromodomains were grown in parallel; purchased DiscoverX; host or cells: T7 phage in E. coli host derived from BL21
Procedure: as §1, §2, §3

BRDT(1) = molecular target: T14, BRDT(1) (Homo sapiens, UniProt Q58F21); test: BROMOscan BromoKdMAX; assay type: binding
T14 construct: T7 phage strains displaying bromodomains were grown in parallel; purchased DiscoverX; host or cells: T7 phage in E. coli host derived from BL21
Procedure: as §1, §2, §3

NCI-H1975 cells = test: Label-free determination of cell proliferation (CELIGO); assay type: cell-based
HCC827 cells [1] = test: Gene expression analysis (qPCR of ALPP and HOPX); assay type: cell-based; conditions: HCC827, 1 μM CBP/p300 inhibitor in presence of Gefitinib, 24 h
Procedure: Equal amount of cDNA was then subjected to qPCR analysis using the Kapa SYBR fast kit (KK4611) in a 384 well format in a Roche Light Cycler 480. Gene expression of genes was evaluated by subtraction of housekeeping gene CT-values (b-Actin) from CT of the genes of interest, and by calculating the ΔΔCT by subtracting the DMSO control value from sample of interest to finally calculate fold change differences of treated versus control treated sample.
Data is from 2 independent experiments with qPCRs in duplicate (mean±SEM) (FIG. 1C-D).

HCC827 cells [2] = test: Label-free determination of cell proliferation (CELIGO); assay type: cell-based; conditions: 21 days (FIG. 9)
NCI-H1975 xenografts = test: NCI-H1975 xenograft tumor growth; assay type: in vivo, NMRI-Nude mice
Procedure: Tumor volume was measured using a manual caliper two to three times a week. The tumor volume was calculated using the formula: lager tumor diameter x square of the smaller tumor diameter divided by 2. Based on a linear fit of the mean tumor volumes the slopes of the curves were compared by regression analysis (two-tailed).
(§4) The response was determined by comparing tumor volume change at time t to its baseline: % tumor volume change=ΔVolt=100%×((Vt−Vinitial)/Vinitial). The Best Response was the minimum value of ΔVolt for t≥10 d. For each time t, the average of ΔVolt from t=0 to t was also calculated. The BestAvgResponse is defined as the minimum value of this average for t≥10 d. This metric captures a combination of speed, strength and durability of response into a single value. […] Mice that were sacrificed because of an adverse event before they had completed 14 d on trial were removed from the data set.
as §4, with “ΔVolt for t≥6 d. For” for “ΔVolt for t≥10 d. For”

HCC4006 cells = test: Label-free determination of cell proliferation (CELIGO); conditions: 21 days (FIG. 10)
Procedure: 2000 HCC4006 (ATCC; CRL2871) were seeded into 96 well plates (Greiner BioOne 655090) one day prior to drug treatment in RPMI medium containing 10% FCS and 2 mM L-Glutamine. The next day wells were imaged label-free using brightfield imaging on a CELIGO Image Cytometer to determine the initial cell number. Subsequently cells were treated with either DMSO, with single drugs (osimertinib and each of the CBP/p300 bromodomain inhibitors) or drug combinations of 100 nM osimertinib and one CBP/p300 bromodomain inhibitor with drug concentrations given below. Plates were regularly imaged over weeks using brightfield mode (CELIGO Imaging Cytometer) to track cell proliferation in each well over time. Growth medium and treatments were replenished twice weekly. […] Cell numbers were determined using CELIGO software's built-in “direct cell counting” analysis tool in the brightfield mode.

T6 sequence (Q9NPI1 131-235 limits assumed): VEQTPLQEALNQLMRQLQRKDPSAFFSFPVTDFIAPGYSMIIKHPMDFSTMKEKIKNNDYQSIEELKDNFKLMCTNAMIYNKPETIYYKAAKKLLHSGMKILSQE
T11 sequence (Q92831 723-827 limits assumed): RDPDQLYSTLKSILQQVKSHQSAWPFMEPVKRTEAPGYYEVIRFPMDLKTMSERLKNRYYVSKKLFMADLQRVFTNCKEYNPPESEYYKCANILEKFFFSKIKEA
T1 sequence (P21675 1519-1628 limits assumed): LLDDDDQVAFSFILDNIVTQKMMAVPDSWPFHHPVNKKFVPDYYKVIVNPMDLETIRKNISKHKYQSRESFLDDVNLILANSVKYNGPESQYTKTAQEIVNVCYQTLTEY
T4 sequence (Q9H8M2 136-240 limits assumed): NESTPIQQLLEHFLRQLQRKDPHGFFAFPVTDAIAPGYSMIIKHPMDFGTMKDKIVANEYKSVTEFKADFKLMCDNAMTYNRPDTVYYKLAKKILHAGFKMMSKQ
T10 sequence (P55201 628-732 limits assumed): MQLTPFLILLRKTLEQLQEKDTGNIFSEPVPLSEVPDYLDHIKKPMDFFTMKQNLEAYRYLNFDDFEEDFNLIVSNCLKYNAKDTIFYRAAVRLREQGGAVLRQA
T9 sequence (Q9NSI6 1313-1418 limits assumed): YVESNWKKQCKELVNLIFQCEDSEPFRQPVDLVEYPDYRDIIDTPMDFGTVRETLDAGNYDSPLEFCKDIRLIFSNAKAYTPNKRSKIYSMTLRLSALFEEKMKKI
T8 sequence (P25440 71-455 limits assumed): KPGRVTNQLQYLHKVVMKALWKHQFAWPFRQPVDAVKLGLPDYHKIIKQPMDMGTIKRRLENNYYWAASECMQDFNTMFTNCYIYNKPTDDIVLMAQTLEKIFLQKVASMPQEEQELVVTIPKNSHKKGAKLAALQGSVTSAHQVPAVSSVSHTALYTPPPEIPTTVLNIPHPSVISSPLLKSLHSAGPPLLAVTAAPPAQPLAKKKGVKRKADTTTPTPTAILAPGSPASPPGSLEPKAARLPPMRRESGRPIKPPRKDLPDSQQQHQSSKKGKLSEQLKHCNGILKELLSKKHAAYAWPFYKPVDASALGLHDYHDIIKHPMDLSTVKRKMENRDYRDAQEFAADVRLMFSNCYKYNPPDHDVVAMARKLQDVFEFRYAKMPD
T3 sequence (Q8IZX4 1517-1626 limits assumed): as the sequence (P21675 1519-1628 limits assumed) above, with V46M, M51V, V102I, L107I counted along it
T13 sequence (Q9H0E9 706-811 limits assumed): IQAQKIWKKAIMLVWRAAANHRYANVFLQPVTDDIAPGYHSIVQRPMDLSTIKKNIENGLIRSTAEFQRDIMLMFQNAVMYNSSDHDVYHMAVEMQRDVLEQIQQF
T7 sequence (P25440 74-180 limits assumed): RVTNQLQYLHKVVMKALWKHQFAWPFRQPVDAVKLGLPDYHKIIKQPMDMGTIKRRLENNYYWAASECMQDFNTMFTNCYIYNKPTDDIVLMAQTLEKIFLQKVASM

Kd (TAF1(2)): 7.9 µM | Kd (BRD4(2)): 5.2 µM | Kd (TAF1L(2)): > 10 µM | Kd (BRD9): 0.79 µM | Kd (BRDT(2)): 8.9 µM | Kd (BRD7): 5.1 µM | Kd (BRD2(1)): 0.23 µM | Kd (BRD2(1, 2)): 0.61 µM | Kd (WDR9(2)): > 10 µM | Kd (BRPF1): 1.4 µM | Kd (PCAF): > 10 µM | Kd (BRD4(1, 2)): 6.9 µM | Kd (BRD8(1)): > 10 µM | Kd (BRDT(1)): 0.39 µM
Compound: CO[C@H]1CC[C@H](n2c([C@@H]3CCCC(=O)N3c3ccc(F)c(F)c3)nc3cc(-c4c(C)noc4C)ccc32)CC1 [CCS1477]
Growth long-term (NCI-H1975 cells; NCI-H1975, 50 nM osimertinib with 2.0, 0.5 or 0.125 μM co-treatment (FIG. 5)): delayed | Effect on cell numbers on their own (NCI-H1975 cells; NCI-H1975, 2 μM single agent (FIG. 5)): no/weak effect on cell numbers | EGFR inhibitor induced gene expression (ALPP, HOPX) (HCC827 cells [1]): reverse EGFR inhibitor induced gene expression | Development of drug resistance / re-growth (HCC827 cells [2]; HCC827, combined with 100 nM osimertinib): prevent the development of drug resistance | Effect on cell proliferation on their own (HCC827 cells [2]; HCC827, single agent (1 μM Compound A, 0.2 μM Compound C, 0.2 μM CCS1477, 1 μM FT-6876, 0.2 μM GNE-781)): do not affect cell proliferation | Response rate to therapy (best average response) (NCI-H1975 xenografts; 2 mg/kg osimertinib in combination with 20 mg/kg CCS1477): increased response rate | Tumor growth (slopes of mean tumor volume curves) versus osimertinib group (NCI-H1975 xenografts; 2 mg/kg osimertinib in combination with 20 mg/kg CCS1477, daily, orally): significant difference | Response to therapy (best average response) (NCI-H1975 xenografts; 20 mg/kg CCS1477 alone): absence of response | Tumor growth (slopes of mean tumor volume curves) versus vehicle (NCI-H1975 xenografts; 20 mg/kg CCS1477 single agent, daily, orally): No significant difference | Development of drug resistance / re-growth (HCC4006 cells; HCC4006, combined with 100 nM osimertinib): prevent the development of drug resistance | Effect on cell proliferation on their own (HCC4006 cells; HCC4006, single agent (1 μM Compound A, 0.2 μM Compound C, 0.2 μM CCS1477, 1 μM FT-6876, 0.2 μM GNE-781)): do not affect cell proliferation
